Consider three compounds from patent US20150342954A1, “2-BENZYL, 3-(PYRIMIDIN-2-YL) SUBSTITUTED PYRAZOLES USEFUL AS SGC STIMULATORS” (IRONWOOD PHARMACEUTICALS, INC., priority 2011, published 2015).

SMILES strings stand for the structures.

The assay concerns the target T1, Human soluble guanylate cyclase enzyme (hsGC) (Homo sapiens, UniProt Q02108+Q02153).
T1 construct: purchased Enzo Inc. ALX-201-177
T1 sequence (Q02153 1-619): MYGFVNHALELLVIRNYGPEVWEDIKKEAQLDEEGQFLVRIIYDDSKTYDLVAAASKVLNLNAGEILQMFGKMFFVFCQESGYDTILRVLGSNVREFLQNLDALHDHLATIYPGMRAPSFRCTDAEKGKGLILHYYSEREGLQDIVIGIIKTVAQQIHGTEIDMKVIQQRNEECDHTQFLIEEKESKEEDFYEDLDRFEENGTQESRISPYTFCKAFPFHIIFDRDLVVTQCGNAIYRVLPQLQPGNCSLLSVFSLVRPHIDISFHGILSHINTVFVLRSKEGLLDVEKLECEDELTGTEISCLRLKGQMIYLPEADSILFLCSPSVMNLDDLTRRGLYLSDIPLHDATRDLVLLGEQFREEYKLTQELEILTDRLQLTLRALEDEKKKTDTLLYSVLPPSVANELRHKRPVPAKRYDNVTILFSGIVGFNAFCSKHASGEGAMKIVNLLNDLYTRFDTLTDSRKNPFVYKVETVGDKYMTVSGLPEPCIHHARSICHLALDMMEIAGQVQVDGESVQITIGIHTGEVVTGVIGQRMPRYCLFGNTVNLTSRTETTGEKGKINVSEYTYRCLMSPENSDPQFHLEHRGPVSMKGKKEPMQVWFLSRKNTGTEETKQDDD
T1 sequence (Q02108 1-690): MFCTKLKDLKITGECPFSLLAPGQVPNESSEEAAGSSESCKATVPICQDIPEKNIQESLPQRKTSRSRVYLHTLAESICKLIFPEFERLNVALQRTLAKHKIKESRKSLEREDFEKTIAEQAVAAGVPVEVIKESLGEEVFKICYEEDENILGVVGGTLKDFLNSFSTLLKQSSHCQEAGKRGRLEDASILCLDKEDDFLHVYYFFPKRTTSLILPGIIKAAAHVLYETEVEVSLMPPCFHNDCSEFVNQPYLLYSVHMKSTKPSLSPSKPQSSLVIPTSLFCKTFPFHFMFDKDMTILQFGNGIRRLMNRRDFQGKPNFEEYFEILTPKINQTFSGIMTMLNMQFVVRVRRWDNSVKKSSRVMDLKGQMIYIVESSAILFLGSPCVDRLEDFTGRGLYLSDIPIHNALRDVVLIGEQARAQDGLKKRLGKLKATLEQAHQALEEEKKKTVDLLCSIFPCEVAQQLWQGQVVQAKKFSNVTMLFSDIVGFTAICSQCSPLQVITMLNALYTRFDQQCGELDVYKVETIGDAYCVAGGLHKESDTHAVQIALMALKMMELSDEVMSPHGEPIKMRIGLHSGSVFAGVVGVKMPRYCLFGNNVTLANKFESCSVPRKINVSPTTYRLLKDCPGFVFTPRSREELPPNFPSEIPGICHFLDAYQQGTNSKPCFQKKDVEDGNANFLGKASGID
Briefly: Purified human sGC enzyme synergy assay in the presence of 1 μM sodium nitroprusside (SNP). Format: biochemical. Particulars: compound at 30 μM, presence of 1 μM SNP; Table 5A. In a few lines: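 Purified hsGC (5 ng) incubated 30 min at 37 °C with compound (10 or 30 μM final) in Tris pH 8.0, 300 μM GTP, 1 mM IBMX, 2 mM MgCl2, with or without 1 μM SNP; stopped with cold methanol. cGMP quantified against standard curve; specific activity expressed as fold-change over DMSO control.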
As to `Nc1nc(-c2cc(-c3ccon3)n(Cc3ccccc3F)n2)ncc1NC(=O)C1(c2ccccc2)CC1` [Compound 27], the “Enzyme Activity (increase at 30 μM with SNP)” value was “D (10 or <20 fold increase)”.
In the case of `Nc1nc(-c2cc(-c3ccon3)n(Cc3ccccc3F)n2)ncc1NC(=O)C1(F)CC1` [Compound 35], the “Enzyme Activity (increase at 30 μM with SNP)” value is “E (20 to 30 fold increase)”.
To `Nc1nc(-c2cc(-c3ccon3)n(Cc3cccc(F)c3F)n2)ncc1NC(=O)C1(C(F)(F)F)CC1` [Compound 40] belongs “D (10 or <20 fold increase)”.
